Results from patent publication US20230330059A1, “3-PHENYL-2H-CHROMENE DERIVATIVE AND PHARMACEUTICAL COMPOSITION FOR PREVENTING OR TREATING ALZHEIMER'S, CONTAINING SAME” (NEUROBIONET, INC., priority 2020, published 2023).

Assays:
[1] = tested on: oligomeric Aβ proteins in cortex and hippocampus of 5xFAD mice; assay: Western blotting of oligomeric Aβ proteins in brain tissue; format: in vivo, mouse; settings: 10 mg/kg, FIG. 28
Protocol: (§1) 5xFAD mice were purchased from Jackson Lab and bred in and in through mating with C57B16/SJL F1 females, based on the information provided by the supplier. Through genotyping, the mice were divided into groups of 7-9 members, including normal groups (WT) and genetically modified groups (5xFAD): 4.5-month-old 5xFAD mice (Tg) and age-matched controls (WT). To the WT or Tg groups, a vehicle or SPA1413 was orally administered at a dose of 10 mg/kg once a day for 1 month. To test whether SPA1413 has a therapeutic effect on Alzheimer’s disease, the mice in 5 groups (WT-vehicle; WT-SPA1413 5xFAD-vehicle; 5xFAD-SPA1413; and 5xFAD-donepezil) were evaluated for cognitive ability.
After the animal behavior experiments, the brain tissues of the experimental animals were recovered, the brain tissues in the cortex and hippocampus regions of one hemisphere were separated, frozen, and stored until use. The tissues were thawed on the test day and treated with a lysis solvent, followed by protein isolation and quantitation. […]
The images of the western blots analyzed for oligomeric Aβ proteins (60-70 kDa) in the cortex and hippocampus of 5xFAD-vehicle and 5xFAD-SPA1413 group animals are presented in FIG. 28, and the band intensity was analyzed and quantified using the image j program.

5xFAD mice [2] = assay: Passive avoidance test; format: in vivo, mouse; settings: 10 mg/kg orally once a day for 1 month, FIG. 22
Protocol: (§2) The experiment was conducted with 5X-FAD transgenic mice having Alzheimer’s disease introduced therein. The 5X FAD mouse is an animal model of Alzheimer’s disease with all the human AD-linked mutations: Swedish (K670N/ […]), Florida (1716V) and London (V7171) in APP (695) and M146L in Presenilin 1
as §1
Passive avoidance test: Memory impairment was evaluated using the passive avoidance test. […] After being trained to learn that an unpleasant stimulus was given thereto in the dark room, the mice were evaluated for memory for the corresponding content as step-through latency.

[3] = tested on: PSEN1 gene expression in PSEN1-overexpressed HEK293 cells; assay: Inhibition of dementia gene PSEN1 expression (qRT-PCR); format: cell-based; settings: 0.1 and 1 µM, 24 hours, FIG. 17
Protocol: HEK293 cells and PSEN1-overexpressed HEK293 cells were seeded at a density of 1x10^6 cells/well into 6-well plates containing a DMEM medium and stabilized overnight, following by treating the cells with or without various concentrations (0.1 and 1 µM) of the sample (SPA1413) for 24 hours. Thereafter, RNA was extracted from the cells, using TRIzol reagent. Reverse transcription was performed using the GoScript™ reverse transcription system according to the manufacturer’s instructions. A qRT-PCR reaction was performed in a volume of 20 µl using the standard SYBR Green PCR kit and Roche Light® Instrument according to the standard protocol. Relative gene expression levels were calculated by the 2^-ΔΔCt method.

[4] = tested on: MHC II-positive microglia in cortex and hippocampus of 5xFAD mice; assay: MHC II-positive activated microglia in brain tissue; format: in vivo, mouse; settings: 10 mg/kg, FIGS. 26 and 27
[5] = tested on: amyloid plaques in cortex and hippocampus of 5xFAD mice; assay: Immunohistochemical assay of amyloid plaques (6E10 antibody, Thioflavin S); format: in vivo, mouse; settings: 10 mg/kg, FIGS. 24 and 25
Protocol: as §1
After the animal behavior experiments, the brain tissues of the experimental animals were recovered, sectioned, and then stained with Thioflavin S for immunostaining chemistry using the 6E10 antibody.
Immunohistochemical staining is a technique for detecting specific proteins within tissues by staining the same. […] The stained tissues were observed through a fluorescence microscope, and the images are depicted in FIG. 23.
The quantitative analysis results of the images of the tissues stained with the 6E10 antibody and Thioflavin S are presented in FIGS. 24 and 25. Five experimental animals were selected from each group and analyzed. […]

[6] = tested on: HEK293 cells overexpressing the dementia gene PSEN1; assay: MTT cytotoxicity in HEK293 cells overexpressing PSEN1; format: cell-based; settings: PSEN1 gene-overexpressing HEK293 cell line, 1, 5 and 10 µM, 24 hours, compared to the normal cells; FIG. 16
Protocol: (§3) HEK293 cells and the HEK293 cells overexpressing the dementia gene PSEN1 were seeded at a density of 2x10^5 cells/well into 96-well plates containing a DMEM medium and stabilized overnight, following by treating the cells with various concentrations (1, 5, and 10 µM) of the sample (SPA1413) for 24 hours. After removal of the culture medium, a 0.5 mg/ml MTT solution was added in an amount of 100 µl to each well and incubated at 37° C. for at least one hour in an incubator. The MTT was removed and 200 µl of DMSO was added to each well to dissolve the formazan. Absorbance was read at 540 nm on an ELISA reader to determine whether or the sample was toxic to the cells.

5xFAD mice [7] = assay: Novel object recognition test; format: in vivo, mouse; settings: 10 mg/kg orally once a day for 1 month, between groups, FIG. 20
Protocol: as §2, §1
For a novel object recognition test, the Ethovision XT 9 system was used to examine whether an animal was interested in a new object. […] An object newly recognizable to the animals was put into the box, and the time and frequency of staying near the object were measured to determine how interested the animals were in it. […]

5xFAD mice [8] = assay: Y-maze test; format: in vivo, mouse; settings: 10 mg/kg orally once a day for 1 month, vs 5xFAD-saline group, FIG. 21
Protocol: as §2, §1
Memory impairment was evaluated using the Y-shaped maze test. For the Y-shaped maze test, a Y-shaped arm was installed in a water tank. […] After a random number was assigned to each arm, the arm number in which the animal entered was recorded. Memory was assessed by the animal’s ability to remember the route it had taken and to try to navigate the new route.

HEK293 cells = assay: MTT cytotoxicity in HEK293 cells; format: cell-based; settings: HEK293 cells, 1, 5 and 10 µM, 24 hours; FIG. 16
Protocol: as §3

In the case of Oc1ccc(C2=Cc3ccc(O)cc3OC2)cc1 [SPA1413, 3-(4-Hydroxyphenyl)-2H-chromen-7-ol], the “level of oligomeric Aβ proteins (60-70 kDa) in the cortex and hippocampus” value [1] is reported as “significantly reduce”, the step-through latency (5xFAD mice [2]) is reported as “significantly recovered” and the PSEN1 gene expression [3] is reported as “inhibited the upregulated expression of PSEN1 gene”. For the same compound, the “number of activated microglia showing a positive MHC II reaction” value [4] was “significantly decrease”, the “amyloid plaques in the cortex and hippocampus” value [5] was “significantly reduced” and the “cell viability (MTT)” value [6] was “increase in cell viability”. For the same compound, the total distance (5xFAD mice [7]) was “no significant difference”, the velocity (5xFAD mice [7]) was “no significant difference” and the total arm entries (5xFAD mice [8]) was “no significant difference”. For the same compound, the “cell viability (MTT)” value (HEK293 cells) was “the same as or almost similar to the normal control group”.
